Results taken from patent publication US10351525B2, “Beta lactamase inhibitors” (Oxford University Innovation Limited, priority 2014, dated 2019).

Legend:
SPM-1 = SPM-1 (Pseudomonas aeruginosa, UniProt Q8G9Q0); experiment: MBL screening assay (IC50), SPM-1; format: biochemical
Protocol: (§1) Recombinant forms of NDM-1, NDM-1 M67C, VIM-1, VIM-2, SPM-1, IMP-1 and BcII MBLs were produced in Escherichia coli as described in J. Med. Chem. 56, 6945-6953 (2013) and Makena et al Chem MechCHem 8, 1923-9 (2013). Purified VIM-2 protein was dialysed into fresh crystallization buffer (50 mM HEPES pH 7.5, 150 mM NaCl and […], concentrated to 7.5 mg/mL and used for crystallographic analyses.
(§2) Kinetic and inhibition analyses and UV-VIS studies^16 against bacterial MBLs were performed as described by Van Berkel et al in J. Med. Chem. 56, 6945-6953 (2013) and Makena et al Chem MechCHem 8, 1923-9 (2013).
(§3) The experiments were performed by using a NovaStar microplate reader (using path length correction) and were performed at r.t. (24-25° C.). All enzymes and substrates were dissolved in the assay buffer: 50 mM HEPES-NaOH buffer (pH 7.2) supplemented with 1 μg/mL BSA (to minimize the denaturation of the enzyme), 1 μM ZnSO4 and 0.01% Triton 100. Screening was carried out against a panel of MBLs including NDM-1, VIM-1, VIM-2, SPM-1 (Sao Paulo MBL-1) and IMP-1 and the non-clinically relevant model MBL Bacillus cereus (BcII).
(§4) The kinetic values determined were the means from at least three independent measurements. […] The IC50 values were determined from the plot of activity (steady state rate) versus inhibitor concentration using the same software. […]

hACE-2 = target: T1, hACE-2 (Homo sapiens, UniProt Q9BYF1); experiment: hACE 2 assay; format: biochemical; conditions: for remaining activity at 100 µM: read-out: RA (residual activity); as to Inhibition verdict: key: N.I.—not inhibited
T1 construct: purchased R&D Systems 933-ZN
Protocol: (§5) To investigate the selectivity of ML302/ML302F for bacterial MBLs, activity was tested against TEM-1 (a Class A SBL), PBP-5 (penicillin-binding protein 5 or dacA) and PBP-6 (penicillin-binding protein 6, or dacC) from E. coli, hHAT (human histone acetyltransferase) and hHDAC (human histone deacetylase). TEM-1, PBP-5 and -6 and hHAT are known to be inhibited by rhodanines. Selectively against hACE-2 (Angiotensin converting enzyme 2) and hHAGH (Hydroxyacylglutathione hydrolase, human Glyoxylase II) was also tested.
The inhibition analyses for human histone acetyltransferases (HAT), HDAC hHDAC (human histone deacetylase), hACE-2 (Angiotensin converting enzyme 2) and hHAGH (Hydroxyacylglutathione hydrolase, human Glyoxylase II) were performed using the commercially available HAT Assay Kit (Active Motif, catalogue No. 56100 (2009)), hHDAC (Active Motif, catalogue No. 56200 (2013)), hACE-2 (ACE-2 (R&D Systems) and hHAGH ((R&D Systems).
hACE 2 Assay (R&D systems):
• Assay Buffer: 75 mM Tris, 1 M NaCl, pH 7.5 • Recombinant Human ACE-2 (rhACE-2) (Catalog #933-ZN) • Substrate: MCA-Tyr-Val-Ala-Asp-Ala-Pro-Lys(DNP)-OH (Catalog # ES007), 10 mM stock in DMSO • F16 Black Maxisorp Plate (Nunc, Catalog #475515) • Fluorescent Plate Reader (Model: SpectraMax Gemini EM by Molecular Devices) or equivalent Assay: 1. Dilute rhACE-2 to 0.2 ng/μL in Assay Buffer. 2. Dilute Substrate to 40 μM in Assay Buffer. 3. Load in a black well plate 50 μL of […], and start the reaction by adding 50 μL of 40 μM Substrate. As a control load […] Substrate with 50 μL of Assay Buffer. 4. Read at excitation and emission wavelengths of 320 nm and 405 nm (top read), respectively in kinetic mode for 5 minutes. 5.

[1] = test system: MBL producing Escherichia coli and Klebsiella pneumoniae strains; experiment: Potentiation of meropenem; format: cell-based; conditions: for Inhibitor concentration that conferred meropenem sensitivity (lowest tested): IMP producers; for Synergy with meropenem: MBL producing strains
Protocol: Further studies were carried out to determine if ML302F/ML302 potentiates β-lactam antibiotic activity in clinically derived strains containing IMP-1, IMP-4, VIM-4 or NDM-1, which are the most commonly observed MBLs in clinical isolates. All strains producing MBLs were confirmed as resistant to meropenem at the Clinical and Laboratory Standards Institute (U.S.A.) defined breakpoint of 8 μg/mL for Enterobacteriace (see Table 2 below). The minimum inhibitory concentration (MIC) of meropenem against wildtype and MBL producing Escherichia coli and Klebsiella pneumoniae strains was determined with and without increasing concentrations of ML302 or ML302F. Clinical and Laboratory Standards Institute. 2012. Methods for dilution antimicrobial susceptibility tests for bacteria that grow aerobically; 9th ed. Approved standard M07-A9. CLSI, Wayne, Pa.; and Clinical and Laboratory Standards Institute. 2012. Performance standards for antimicrobial susceptibility testing; 22nd informational supplement M100-S22. CLSI, Wayne, Pa.

TEM-1 = TEM-1 (Escherichia coli, UniProt P62593); experiment: Inhibition studies TEM-1; format: biochemical; conditions: for Inhibition verdict: TEM-1, 100 μM; for remaining activity at 100 µM: read-out: RA (residual activity); as to Inhibition verdict: key: N.I.—not inhibited
Protocol: as §5
The inhibition analysis for TEM-1 was performed using the modified method that was previously described for MBLs.21 In brief: ML302 and ML302F were screened at a single concentration (100 μM) in duplicate. Inhibition was tested by pre-incubation of the appropriate amount of TEM-1 (1 nM final concentration) and ML302 or ML302F in the assay buffer (50 mM HEPES-NaOH buffer (pH 7.2) supplemented with 0.01% Triton 100) for 10 min. at r.t. prior to the initiation of the assay by the addition of FC5 ((6R,7R)-8-Oxo-3-(((2-oxo-2H-chromen-7-yl)oxy)methyl)-7-(2-phenylacetamido)-5-thia-1-azabicyclo[4.2.0]oct-2-ene-2-carboxylic acid 5,5-dioxide)21 (10 μM final concentration). The hydrolysis of FC5 was monitored by following the variation on fluorescence reading (380 nm—excitation and 460 nm—emission) using 384 well flat bottom plates (Greiner Bio-One). The experiments were performed on a PHERAstar FS-BMG Labtech microplate reader at r.t. (24-25° C.). All enzymes and inhibitors were prepared in the assay buffer.

VIM-1 = target: T2, VIM-1 (Pseudomonas aeruginosa, UniProt A0A0F7KYQ8); experiment: MBL screening assay (IC50), VIM-1; format: biochemical
T2 construct: made in house; host or cells: Escherichia coli
Protocol: as §1, §2, §3, §4

| Compound | IC50 (SPM-1) | RA (residual activity) (hACE-2; 100 μM) | remaining activity at 100 µM (hACE-2; 100 μM) | Inhibitor concentration that conferred meropenem sensitivity (lowest tested) [1] | Synergy with meropenem [1] | Inhibitor concentration giving meropenem sensitivity ([1]; read-out: Inhibitor concentration at which clinically relevant meropenem sensitivity (MIC<8 μg/mL) achieved) | Inhibition verdict (TEM-1) | remaining activity at 100 µM (TEM-1) | IC50 (VIM-1) | Inhibition verdict (hACE-2) | Meropenem MICs in the presence of ML302F relative to the same ML302 concentration, fold higher [1] |
| --- | --- | --- | --- | --- | --- | --- | --- | --- | --- | --- | --- |
| CN1CCN(NC(=O)CN2C(=O)C(=Cc3c(Cl)ccc(Cl)c3Cl)SC2=S)CC1 (mixture of isomers) [ML302, N-(4-Methylpiperazin-1-yl)-2-(4-oxo-2-thioxo-5-(2,3,6-trichlorobenzylidene)thiazolidin-3-yl)acetamide] | 1.32 ± 0.62 µM | 73 ± 9 ^ % | ~75% | 10 µg/mL | Synergy between ML302 and meropenem was observed for all MBL producing strains | 50 µg/mL | N.I. | 98.6 ± 7.1% | 0.66 ± 0.25 µM |  |  |
| O=C(O)C(S)=Cc1c(Cl)ccc(Cl)c1Cl (racemic) [ML302F, 2-Mercapto-3-(2,3,6-trichlorophenyl)acrylic acid] | 1.76 ± 0.51 µM |  | 99 ± 4% | 10 µg/mL | displayed synergy with meropenem |  | N.I. | 99.6 ± 3.1% | 0.44 ± 0.19 µM | N.I. | up to 8 fold |
